This note sets out measurements from ChEMBL document CHEMBL3860054, “Design, synthesis and biological evaluation of novel alkyl diamine linked bivalent β-carbolines as angiogenesis inhibitors” (Bioorg Med Chem Lett, 2016).

As usually defined, the IC50 is the concentration that inhibits the measured activity by half. One may read the solubility as the concentration that dissolves in the medium under given conditions. Low values mean a poorly soluble substance, high ones a readily soluble substance.

Molecules are shown by their SMILES. Calls of active or inactive are those of the source. No cut-off for these calls is given here.

The nature of series [1]: Antiproliferative activity against human EAhy926 cells assessed as reduction in cell viability measured after 48 hrs by MTT assay. The class given is functional, cell-based. The note with it: EA.hy 926, 48 h. In general terms: Tetrazolium dyes change colour on reduction, which living cells bring about.
A short description of series [2]: Solubility of compound in water. In kind it is physicochemical.
Series [3] relates to EA.hy 926. The series is described as follows: Antiangiogenic activity in human EAhy926 cells assessed as inhibition of VEGF-induced cell migration measured after 24 hrs by wound healing assay relative to control. The class given is functional, cell-based.
In series [4] the test system is EA.hy 926. The series is described as follows: Antiangiogenic activity in human EAhy926 cells assessed as inhibition of VEGF-induced capillary-like tube formation on matrigel after 24 hrs by phase-contrast microscopy. The class given is functional, cell-based.
The species named for the next series is Gallus gallus. The experiment in a line: Antiangiogenic activity in chicken chorioallantoic membrane at 30 uM/disc after 48 hrs by microscopic analysis. In kind it is functional.

Take `CC(C)Cn1c2ccccc2c2cc(CNCCCCNCc3cc4c5ccccc5n(CC(C)C)c4cn3)ncc21.Cl`: the half-maximal inhibitory concentration (IC50) in series [1] came to 3.08 µM. Moreover, in series [2], the solubility was > 10000 µg/mL.
For the compound `CCCCCCCCn1c2ccccc2c2cc(CNCCCCCNCc3cc4c5ccccc5n(CCCCCCCC)c4cn3)ncc21.Cl`, the half-inhibitory concentration (IC50) in series [1] was found to be 3.77 µM. The solubility in series [2] was > 10000 µg/mL.
Turning to `Cl.Clc1cccc(Cn2c3ccccc3c3cc(CNCCCCCCNCc4cc5c6ccccc6n(Cc6cccc(Cl)c6)c5cn4)ncc32)c1`, in series [1], the IC50 is 2.98 µM. Also, the solubility in series [2] is > 10000 µg/mL.
Turning to `Cl.Clc1cccc(Cn2c3ccccc3c3cc(CNCCCCCNCc4cc5c6ccccc6n(Cc6cccc(Cl)c6)c5cn4)ncc32)c1`, the 50% inhibitory concentration (IC50) in series [1] fell in the range of 1.06 to 1.1 µM. Further, the inhibition result in the series with EA.hy 926 [3] and with EA.hy 926 [4] was “Dose-dependent effect” each time. In addition, the outcome in the series filed under Gallus gallus was Active. Besides, the solubility in series [2] was > 10000 µg/mL.
Regarding `Cl.Fc1ccc(Cn2c3ccccc3c3cc(CNCCCCCNCc4cc5c6ccccc6n(Cc6ccc(F)cc6)c5cn4)ncc32)cc1`, the IC50 in series [1] worked out at 4.14 µM. The solubility in series [2] is > 10000 µg/mL.
With `CCCCn1c2ccccc2c2cc(CNCCCNCc3cc4c5ccccc5n(CCCC)c4cn3)ncc21.Cl`, the IC50 in series [1] was > 10 µM. Further, the solubility in series [2] was > 10000 µg/mL.
As for `Cl.c1ccc(CCCn2c3ccccc3c3cc(CNCCCCNCc4cc5c6ccccc6n(CCCc6ccccc6)c5cn4)ncc32)cc1`, the IC50 in series [1] was found to be 4.18 µM. Besides, the solubility in series [2] is > 10000 µg/mL.
As to `CCCCn1c2ccccc2c2cc(CNCCCCCCNCc3cc4c5ccccc5n(CCCC)c4cn3)ncc21.Cl`, the concentration for half-maximal inhibition (IC50) in series [1] amounted to 4.82 µM. Further, the solubility in series [2] is > 10000 µg/mL.
In the case of `CC(C)n1c2ccccc2c2cc(CNCCCCCCNCc3cc4c5ccccc5n(C(C)C)c4cn3)ncc21.Cl`, the IC50 in series [1] stood at 2.74 µM. Moreover, in series [2], the solubility is > 10000 µg/mL.
As to `Cl.c1ccc(Cn2c3ccccc3c3cc(CNCCCCCCNCc4cc5c6ccccc6n(Cc6ccccc6)c5cn4)ncc32)cc1`, the IC50 in series [1] worked out at 4.76 µM. In series [2], the solubility is > 10000 µg/mL.
Regarding `COc1ccc(/C=C\c2cc(OC)c(OC)c(OC)c2)cc1OP(=O)(O)O` [FOSBRETABULIN], the IC50 in series [1] came out at 6.4 µM.
Take `CCn1c2ccccc2c2cc(CNCCCCCCNCc3cc4c5ccccc5n(CC)c4cn3)ncc21.Cl`: the IC50 in series [1] was determined as 2.59 µM. The solubility in series [2] is > 10000 µg/mL.
Regarding `CC(C)Cn1c2ccccc2c2cc(CNCCCCCCNCc3cc4c5ccccc5n(CC(C)C)c4cn3)ncc21.Cl`, the IC50 in series [1] is 6.3 µM. The solubility in series [2] is > 10000 µg/mL.
In the case of `CCCCn1c2ccccc2c2cc(CNCCCCCCNCc3cc4c5ccccc5n(CCCC)c4c(C)n3)nc(C)c21.Cl`, the IC50 in series [1] came to 2.74 µM. Further, the solubility in series [2] was > 10000 µg/mL.
Turning to `Cc1nc(CNCCCCCCNCc2cc3c4ccccc4n(CC(C)C)c3c(C)n2)cc2c3ccccc3n(CC(C)C)c12.Cl`, the IC50 in series [1] came out at 2.68 µM. The solubility in series [2] is > 10000 µg/mL.
Regarding `Cc1nc(CNCCCCNCc2cc3c4ccccc4n(Cc4cccc(Cl)c4)c3c(C)n2)cc2c3ccccc3n(Cc3cccc(Cl)c3)c12.Cl`, the IC50 in series [1] stood at 4.81 µM. Also, the solubility in series [2] is > 10000 µg/mL.
With `CC(C)n1c2ccccc2c2cc(CNCCCCNCc3cc4c5ccccc5n(C(C)C)c4cn3)ncc21.Cl`, the IC50 in series [1] was 2.48 µM. In addition, the solubility in series [2] is > 10000 µg/mL.
For `Cl.Fc1ccc(Cn2c3ccccc3c3cc(CNCCCCCCNCc4cc5c6ccccc6n(Cc6ccc(F)cc6)c5cn4)ncc32)cc1`, the IC50 in series [1] was found to be 4.08 µM. Moreover, the solubility in series [2] is > 10000 µg/mL.
`CCCCCCCCn1c2ccccc2c2cc(CNCCCCNCc3cc4c5ccccc5n(CCCCCCCC)c4cn3)ncc21.Cl`: the IC50 in series [1] was determined as 4.86 µM. Moreover, the solubility in series [2] was > 10000 µg/mL.
Turning to `Cc1nc(CNCCCCNCc2cc3c4ccccc4n(CCCc4ccccc4)c3c(C)n2)cc2c3ccccc3n(CCCc3ccccc3)c12.Cl`, in series [1], the IC50 was 2.11 µM. The solubility in series [2] is > 10000 µg/mL.
Regarding `CCCCn1c2ccccc2c2cc(CNCCCCNCc3cc4c5ccccc5n(CCCC)c4cn3)ncc21.Cl`, the IC50 in series [1] is 2.17 µM. In series [2], the solubility is > 10000 µg/mL.
Take `Cl.Cn1c2ccccc2c2cc(CNCCCCCCNCc3cc4c5ccccc5n(C)c4cn3)ncc21`: the IC50 in series [1] was determined as 2.58 µM. Also, the solubility in series [2] was > 10000 µg/mL.
Regarding `Cl.c1ccc(Cn2c3ccccc3c3cc(CNCCCNCc4cc5c6ccccc6n(Cc6ccccc6)c5cn4)ncc32)cc1`, in series [1], the IC50 was > 10 µM. Besides, the solubility in series [2] is > 10000 µg/mL.
`Cl.Clc1cccc(Cn2c3ccccc3c3cc(CNCCCCNCc4cc5c6ccccc6n(Cc6cccc(Cl)c6)c5cn4)ncc32)c1`: the IC50 in series [1] amounted to 6.86 µM. Moreover, in series [2], the solubility is > 10000 µg/mL.
Regarding `Cl.c1ccc(CCCn2c3ccccc3c3cc(CNCCCCCCNCc4cc5c6ccccc6n(CCCc6ccccc6)c5cn4)ncc32)cc1`, the IC50 in series [1] came out at 2.35 µM. Besides, the solubility in series [2] is > 10000 µg/mL.
As to `Cc1nc(CNCCCCCCNCc2cc3c4ccccc4n(Cc4ccccc4)c3c(C)n2)cc2c3ccccc3n(Cc3ccccc3)c12.Cl`, the IC50 in series [1] is 1.39 µM. In addition, in series [2], the solubility was > 10000 µg/mL.
For the compound `CCn1c2ccccc2c2cc(CNCCCCNCc3cc4c5ccccc5n(CC)c4cn3)ncc21.Cl`, the IC50 in series [1] is > 10 µM. For the same compound, in series [2], the solubility is > 10000 µg/mL.
